For assay [1], the target named is T1, Mitogen-activated protein kinase kinase kinase 12 (Homo sapiens, UniProt Q12852).
T1 sequence (Q12852 whole entry): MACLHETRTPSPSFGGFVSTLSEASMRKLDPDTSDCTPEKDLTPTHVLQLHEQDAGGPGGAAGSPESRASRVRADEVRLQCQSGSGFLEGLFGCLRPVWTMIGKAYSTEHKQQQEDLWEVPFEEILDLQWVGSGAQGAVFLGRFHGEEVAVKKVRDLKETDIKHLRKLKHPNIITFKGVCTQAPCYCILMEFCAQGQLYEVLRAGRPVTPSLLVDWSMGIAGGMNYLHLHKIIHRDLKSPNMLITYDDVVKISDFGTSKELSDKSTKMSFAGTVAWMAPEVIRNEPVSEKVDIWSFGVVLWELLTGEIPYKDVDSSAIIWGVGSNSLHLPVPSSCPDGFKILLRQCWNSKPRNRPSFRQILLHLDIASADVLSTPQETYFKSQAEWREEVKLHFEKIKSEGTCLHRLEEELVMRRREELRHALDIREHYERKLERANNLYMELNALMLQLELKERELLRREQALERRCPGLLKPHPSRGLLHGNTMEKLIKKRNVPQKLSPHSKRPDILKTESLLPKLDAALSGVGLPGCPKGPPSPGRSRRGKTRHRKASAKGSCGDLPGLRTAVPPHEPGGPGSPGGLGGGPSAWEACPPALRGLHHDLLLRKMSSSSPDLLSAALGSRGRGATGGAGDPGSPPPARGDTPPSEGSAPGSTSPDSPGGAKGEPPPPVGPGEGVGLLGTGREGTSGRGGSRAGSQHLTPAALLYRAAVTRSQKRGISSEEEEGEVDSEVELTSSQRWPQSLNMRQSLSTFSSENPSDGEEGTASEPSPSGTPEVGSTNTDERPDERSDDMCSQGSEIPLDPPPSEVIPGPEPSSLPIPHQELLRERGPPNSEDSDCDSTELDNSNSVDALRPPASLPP
As to the kind of experiment: DLK Biochemical Assay.

Assay [2] deals with T2, Mitogen-activated protein kinase kinase kinase 13 (Homo sapiens, UniProt O43283).
T2 sequence (O43283 whole entry): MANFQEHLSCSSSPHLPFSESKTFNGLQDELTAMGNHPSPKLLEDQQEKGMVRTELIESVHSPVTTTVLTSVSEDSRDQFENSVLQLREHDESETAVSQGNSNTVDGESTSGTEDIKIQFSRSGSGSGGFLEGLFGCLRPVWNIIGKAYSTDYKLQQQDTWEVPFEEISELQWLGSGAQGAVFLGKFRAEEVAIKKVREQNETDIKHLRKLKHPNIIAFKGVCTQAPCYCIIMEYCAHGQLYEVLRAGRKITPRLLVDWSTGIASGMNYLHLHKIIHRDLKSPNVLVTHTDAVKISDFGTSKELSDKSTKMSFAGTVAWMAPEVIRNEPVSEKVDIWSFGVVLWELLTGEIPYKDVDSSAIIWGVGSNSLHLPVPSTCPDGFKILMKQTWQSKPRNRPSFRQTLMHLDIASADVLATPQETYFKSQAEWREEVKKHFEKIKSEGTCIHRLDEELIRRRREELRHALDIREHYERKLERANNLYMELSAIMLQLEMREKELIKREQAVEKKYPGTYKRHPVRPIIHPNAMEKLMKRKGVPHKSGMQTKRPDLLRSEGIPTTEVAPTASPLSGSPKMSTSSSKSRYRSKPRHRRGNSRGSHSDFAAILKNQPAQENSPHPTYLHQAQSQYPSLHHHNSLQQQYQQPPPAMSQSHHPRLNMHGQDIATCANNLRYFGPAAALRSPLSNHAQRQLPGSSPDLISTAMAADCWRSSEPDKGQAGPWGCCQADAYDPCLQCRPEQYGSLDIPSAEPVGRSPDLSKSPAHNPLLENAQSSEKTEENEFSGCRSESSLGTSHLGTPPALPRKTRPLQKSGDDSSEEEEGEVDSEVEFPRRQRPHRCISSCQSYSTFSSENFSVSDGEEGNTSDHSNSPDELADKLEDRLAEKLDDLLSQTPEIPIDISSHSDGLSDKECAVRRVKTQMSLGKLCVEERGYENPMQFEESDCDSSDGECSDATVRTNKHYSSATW
In words: LZK Biochemical Assay. Here is the method: All indicated concentrations final concentrations. […] Detection buffer: 25 mM Tris/HCl pH 7.5, 100 mM EDTA, 100 mM NaCl, 200 mM KF, 0.01% Tween 20, 1:500 Smart Block.

One compound from BindingDB's records for patent US20230382904 (The Johns Hopkins University, 2023) can be followed below.

Take `COC[C@H](NC(=O)c1cc(-c2cc(C(=O)NC(C)C)n3nc(N)nc3c2)cs1)c1ccccc1` [US20230382904, Compound 155]: the IC50 is 4.3 nM in assay [1] and 41 nM in assay [2].
